{"source": "patent US20070160542A1", "about": "“Methods and systems for the delivery of corticosteroids having an enhanced pharmacokinetic profile” (Verus Pharmaceuticals, Inc., priority 2005, published 2007)", "origin": "cited, not measured here", "data": [{"smiles": "CCCC1O[C@@H]2C[C@H]3[C@@H]4CCC5=CC(=O)C=C[C@]5(C)[C@H]4[C@@H](O)C[C@]3(C)[C@]2(C(=O)CO)O1", "note": "(stereo partly drawn) [budesonide, (R,S)-11β,16α,17,21-tetrahydroxypregna-1,4-diene-3,20-dione cyclic 16,17-acetal with butyraldehyde]", "values": [{"measurement": "solubility in alcohols", "result": "readily soluble"}, {"measurement": "solubility in water", "result": "virtually insoluble"}]}]}
